The numbers were not newly measured in US20260295002A1, “GASTROINTESTINAL RETENTIVE FORMULATIONS OF ECHINOCANDINS” (The Cleveland Clinic Foundation, priority 2023, published 2026), which cites them from elsewhere.

The conditions of this data set: background statement.

Where a name gives a salt, the structure may show the parent alone.

Consider `CCC(C)CC(C)CCCCCCCCC(=O)N[C@H]1C[C@@H](O)[C@@H](NCCN)NC(=O)[C@@H]2[C@@H](O)CCN2C(=O)[C@H]([C@H](O)CCN)NC(=O)[C@H]([C@H](O)[C@@H](O)c2ccc(O)cc2)NC(=O)[C@@H]2C[C@@H](O)CN2C(=O)[C@H]([C@@H](C)O)NC1=O` (some centres unmarked) [Caspofungin], for which the oral bioavailability entry is recorded as “poor oral bioavailability”.
With `CC[C@H](C)C[C@H](C)CCCCCCCCC(=O)N[C@H]1C[C@@H](O)[C@@H](NCCN)NC(=O)[C@@H]2[C@@H](O)CCN2C(=O)[C@H]([C@H](O)CCN)NC(=O)[C@H]([C@H](O)[C@@H](O)c2ccc(O)cc2)NC(=O)[C@@H]2C[C@@H](O)CN2C(=O)[C@H]([C@@H](C)O)NC1=O` [caspofungin acetate, 1-[(4R,5S)-5-[(2-aminoethyl)amino]-N2-(10,12-dimethyl-1-oxotetradecyl)-4-hydroxy-L-ornithine]-5-[(3R)-3-hydroxy-L-ornithine]pneumocandin B0 diacetate (salt)], the oral bioavailability entry is recorded as “poor oral bioavailability”.
